Test results: patent US9463186B2, “Treatment for dopaminergic disorders” (Northwestern University, priority 2013, dated 2016)
Entries after “also recorded” stand apart in the source; their conditions may differ.

What was measured:
[1] = system: L-type calcium channels (Cav1.3) of SNc dopaminergic neurons; assay: Whole cell patch clamp recordings of dopaminergic neurons in brain slices (Example 2); assay type: cell-based, mouse; details: for inhibition of L-type calcium channels: dihydropyridine antagonists, brain slice, FIG. 1 and FIG. 4
SNc DA neurons [2] = assay: Mito-roGFP imaging of mitochondrial oxidant stress after chronic drug treatment by s.c. osmotic minipumps; assay type: in vivo, mice; details: for dose dependence of the effect of chronic administration on mitochondrial oxidant stress: 1 week via s.c. osmotic minipump, isradipine 0.03, 0.3, 3 mg/kg/day, rasagiline 1 and 3 mg/kg/day, FIG. 8; for mitochondrial oxidant stress in SNc dopaminergic neurons, chronic treatment: chronic (1 week) s.c. osmotic minipumps, FIG. 7d
SNc dopaminergic neurons [3] = details: Fluo4 and 2PLSM; FIG. 6
SNc dopaminergic neurons [4] = details: brain slice taken following rasagiline treatment; FIG. 6
SNc DA neurons [5] = details: acute treatment at the time of measurement; FIG. 7c-d

Compound | inhibition of L-type calcium channels [1] | dose dependence of the effect of chronic administration on mitochondrial oxidant stress (SNc DA neurons [2]) | mitochondrial oxidant stress in SNc dopaminergic neurons, chronic treatment (SNc DA neurons [2]) | also measured
COC(=O)C1=C(C)NC(C)=C(C(=O)OC(C)C)C1c1cccc2nonc12 (stereo not drawn) [isradipine, 3,5-pyridinedicarboxylic acid, 4-(4-benzofurazanyl)-1,4-dihydro-2,6-dimethyl-, methyl 1-methylethyl ester] | inhibited | dose-dependent | diminished | pacemaking during sustained blockade of Cav1.3 channels ([1]; adult SNc dopaminergic neuron, before, during and after application, FIG. 4): restores pacemaking and dopaminergic neuron cell function through an altered pacemaking mechanism
COCCOC(=O)C1=C(C)NC(C)=C(C(=O)OC(C)C)C1c1cccc([N+](=O)[O-])c1 (stereo not drawn) [nimodipine, isopropyl 2-methoxyethyl 1,4-dihydro-2,6-dimethyl-4-(m-nitrophenyl)-3,5-pyridinedicarboxylate] | inhibited | – | – | autonomous pacemaking of dopaminergic neurons ([1]; tissue slice from an adult, FIGS. 1a-d): inhibits autonomous pacemaking
C#CCN[C@@H]1CCc2ccccc21 [rasagiline] | – | dose-dependent | diminished; also recorded: further lowers stress | calcium entry linked to pacemaking (intracellular calcium oscillations) (SNc dopaminergic neurons [3]): no effect; pacemaking of SNc dopaminergic neurons (SNc dopaminergic neurons [4]): no effect on pacemaking; mitochondrial oxidant stress in SNc dopaminergic neurons, acute treatment (SNc DA neurons [5]): lowers mitochondrial oxidant stress
NC1=N[C@H](O)[C@H]2[C@H]3O[C@]4(O)O[C@@H]([C@@H](O)[C@@]2(N1)[C@@H]4O)[C@]3(O)CO [tetrodotoxin] | – | – | – | spikes and underlying oscillations that drive pacemaking [1]: eliminates spikes but not the underlying oscillations
